Assay results taken from article PMC10647059, “Molecular Determinants of EphA2 and EphB2 Antagonism Enable the Design of Ligands with Improved Selectivity” (Journal of Chemical Information and Modeling, 2023).

Experiments:
[1] = Rat liver microsome stability assay; assay type: in vitro ADME; conditions: liver microsomes, pH 7.4, 60 min at 37 °C, NADPH-generating system, read-out: compound recovery at 60 min in rat liver microsomes
Method: Experiments were performed as previously described.[59]

U251 GBM cell line = assay: MTT cell viability/proliferation assay on U251 glioblastoma cell line; assay type: cell-based; conditions: 30 μM, continuous exposure, time course vs control DMSO 0.3%
Method: Figure 12 reports the time course of cell growth compared to the control (DMSO 0.3% solution) in the presence of a compound concentration of 30 μM. […] Although additional investigations will be required to confirm this promising behavior, it could be speculated that the higher antiproliferative activity of UniPR1449 compared to that of […], and the reference antagonist UniPR1331, is due to its peculiar pharmacological profile at the level of Eph receptors.
Data are the means of at least three independent experiments ± standard deviation.
Figure S10. Cell viability assay performed using a MTT assay on U251 glioblastoma cell line treated with the approved drug temozolomide and the reference compound UniPR1331.

EphB2 = molecular target: T1, EphB2 (Mus musculus, UniProt P54763); assay: ELISA binding assay: displacement and saturation of biotinylated ephrin-B1-Fc on immobilized EphB2; conditions: data not shown
T1 sequence (P54763 19-543): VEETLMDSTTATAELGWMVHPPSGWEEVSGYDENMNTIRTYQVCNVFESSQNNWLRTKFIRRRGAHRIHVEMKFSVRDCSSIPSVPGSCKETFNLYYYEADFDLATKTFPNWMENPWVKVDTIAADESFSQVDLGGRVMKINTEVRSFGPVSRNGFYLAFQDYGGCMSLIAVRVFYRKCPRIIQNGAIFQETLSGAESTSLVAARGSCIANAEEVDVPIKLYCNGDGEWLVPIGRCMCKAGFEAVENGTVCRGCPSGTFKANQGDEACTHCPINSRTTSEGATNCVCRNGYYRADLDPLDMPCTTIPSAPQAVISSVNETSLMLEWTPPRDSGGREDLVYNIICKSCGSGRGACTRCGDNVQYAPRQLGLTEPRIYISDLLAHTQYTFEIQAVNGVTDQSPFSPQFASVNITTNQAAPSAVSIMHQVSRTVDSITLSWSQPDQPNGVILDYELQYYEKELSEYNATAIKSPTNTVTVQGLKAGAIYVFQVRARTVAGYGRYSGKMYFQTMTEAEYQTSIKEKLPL

[2] = Rat plasma stability assay; conditions: 60 min at 37 °C, 1 μM
Method: Pooled plasma (400 μL) was incubated at 37 °C in the presence of 10 mM phosphate-buffered saline (PBS) pH 7.4. 5 μL of compound stock solution in DMSO (final DMSO concentration: 1%; final compound concentration: 1 μM) was added to start the rat plasma stability assay. […] At fixed time points, aliquots of 50 μL were taken, added with two volumes of CH3CN containing as internal standard the structural analogue UniPR126, centrifuged (16,000g, 5 min, 4 °C), and analyzed by HPLC-ESI-MS/MS. The responses (i.e., peak area ratios of test compound vs internal standard) were referred to the zero time-point samples (considered as 100%) to determine the percentage of remaining compound vs time.

physchem = conditions: pH 7.4
Method: Distribution coefficients (D) were measured at physiological pH by the shake-flask method at room temperature (21.0 ± 0.5 °C), employing n-octanol/50 mM MOPS buffer pH 7.4, 0.15 M KCl ionic strength as a biphasic solvent system, after mutual saturation by overnight stirring. A weighed amount of compound was dissolved in water-saturated n-octanol, a buffer was added, and the sample was stirred for 4 h to reach partition equilibrium. Partition phases were centrifuged (9000g, 10 min, 20 °C), separated, diluted with methanol, and dosed by HPLC-ESI-MS/MS.

EphA2 [3] = molecular target: T2, EphA2 (Mus musculus, UniProt Q03145); assay: Surface plasmon resonance, steady-state analysis on immobilized EphA2-Fc; assay type: binding; conditions: EphA2-Fc on CM4 sensorchip; ± standard deviation; read-out: KD (SPR, steady-state)
Method: Increasing concentrations of the two compounds were injected over EphA2-Fc immobilized on the surface of a CM SPR4 sensorchip and evaluated for their interaction.
Surface plasmon resonance (SPR) measurements were performed on a BIAcore X100 instrument, using a carboxyl-methyl-dextran-coated sensorchip (CM4, GE-Healthcare).

EphA2 [4] = molecular target: T2, EphA2; assay: ELISA binding assay: displacement and saturation of biotinylated ephrin-A1-Fc on immobilized EphA2-Fc
Method: Compounds were added to the wells at proper concentrations in 0.5% DMSO and incubated at 37 °C for 1 h. Biotinylated ephrin-A1-Fc was added at 37 °C for 4 h. Data are the means of three independent experiments ± standard deviation.
The day after, wells were washed with a washing buffer (PBS 0.05% tween20, pH 7.5) and blocked with a blocking buffer solution (PBS 1% BSA) for 1 h at 37 °C. Compounds were added to the wells at a proper concentration in 0.5% DMSO and incubated at 37 °C for 1 h. […] After 4 h for displacement assays or 5 h for saturation studies, wells were washed and incubated with 100 μL/well Streptavidin-HRP (Sigma S5512) for 20 min at room temperature. Then, wells were washed again with a washing buffer and incubated at room temperature with 0.1 mg/mL tetramethylbenzidine (Sigma T2885) reconstituted in stable peroxide buffer (0,05 M citric acid +0,05 M dibasic sodium phosphate, pH 5). The reaction was quenched with 3 N HCl. Absorbance was read at 450 nm (ELISA plate reader). The IC50 and Ki values were determined using one-site competition nonlinear regression analysis with Prism software (GraphPad Software Inc.).

T2 sequence (Q03145 with tags, fused parts or gaps limits assumed): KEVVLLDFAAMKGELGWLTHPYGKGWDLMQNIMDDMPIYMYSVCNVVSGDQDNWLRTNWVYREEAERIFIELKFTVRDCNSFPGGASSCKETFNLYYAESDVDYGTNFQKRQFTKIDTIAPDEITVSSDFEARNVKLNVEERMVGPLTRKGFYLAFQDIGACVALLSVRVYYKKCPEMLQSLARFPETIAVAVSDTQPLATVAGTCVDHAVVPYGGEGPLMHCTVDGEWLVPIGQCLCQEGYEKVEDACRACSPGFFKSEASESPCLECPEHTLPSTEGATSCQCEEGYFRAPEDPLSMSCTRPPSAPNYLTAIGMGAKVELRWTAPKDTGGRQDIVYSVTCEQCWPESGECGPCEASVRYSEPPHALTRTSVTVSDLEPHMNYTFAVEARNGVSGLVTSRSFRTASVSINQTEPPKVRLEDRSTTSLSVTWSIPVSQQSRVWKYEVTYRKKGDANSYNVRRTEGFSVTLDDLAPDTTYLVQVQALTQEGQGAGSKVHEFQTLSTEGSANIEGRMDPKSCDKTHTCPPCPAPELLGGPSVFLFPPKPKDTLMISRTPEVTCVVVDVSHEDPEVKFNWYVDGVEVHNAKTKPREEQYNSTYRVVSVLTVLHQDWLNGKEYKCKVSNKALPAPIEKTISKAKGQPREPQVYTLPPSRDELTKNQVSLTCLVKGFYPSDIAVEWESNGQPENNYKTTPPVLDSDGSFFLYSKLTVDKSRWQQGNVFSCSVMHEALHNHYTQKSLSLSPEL

Structure (SMILES)	remaining at 60 min, 1 μM [1]	effect on U251 cell growth (MTT) (U251 GBM cell line)	reversibility of binding to EphB2 (EphB2)	stability in rat plasma [2]	logD at 4 h (physchem)	Kd (EphA2 [3])	reversibility of binding to EphA2 (EphA2 [4]; 50 μM compound, with or without washing three times with PBS before ephrin-A1-Fc)	Ki (EphA2 [4]; read-out: Ki for EphA2 (saturation curves of ephrin-A1-Fc, nonlinear regression))
C[C@H](CCC(=O)N[C@H](CC(=O)O)Cc1c[nH]c2ccccc12)[C@H]1CCC2C3CC=C4C[C@@H](O)CC[C@]4(C)C3CC[C@@]21C (stereo partly drawn) [UniPR1447, N-(3β-hydroxy-Δ^5-cholen-24-oyl)-L-β-homotryptophan]	40.3%	did not significantly affect U251 growth	fully reversible	stable	4.6 ± 0.1	–	–	–
CC(CCC(=O)NC(CC(=O)O)Cc1cn(S(=O)(=O)c2ccccc2)c2ccccc12)C1CCC2C3CC=C4CC(O)CCC4(C)C3CCC12C [UniPR1449, N-(3β-hydroxy-Δ^5-cholen-24-oyl)-1-benzensulfonyl-L-β-homotryptophan]	62.2%	fully blocked GBM growth	–	stable	4.7 ± 0.11	3800 ± 2400 nM	reversible	2200 nM
